Test results from patent US10889610B2, “Alpha-D-galactoside inhibitors of galectins” (GALECTO BIOTECH AB, priority 2016, dated 2021).

Assays:
galectins = details: cited from earlier work
galectin-3 = galectin-3 (Homo sapiens (Human), UniProt P17931); assay: Fluorescence anisotropy assay, galectin-3 affinity; type: binding; details: inhibition of galectin / fluorescein tagged saccharide probe interaction
Method: Anal. Biochem. 334: 36-47, (Sörme et al., 2004) and Monovalent interactions of Galectin-1 By Salomonsson, Emma; Larumbe, Amaia; Tejler, Johan; Tullberg, Erik; Rydberg, Hanna; Sundin, Anders; Khabut, Areej; Frejd, Torbjorn; Lobsanov, Yuri D.; Rini, James M.; et al, From Biochemistry (2010), 49(44), 9518-9532, (Salomonsson et al., 2010). […] 100 nM albumin was included as a carrier to prevent protein loss at such low concentration of galectin.

galectin-1 = galectin-1 (Homo sapiens (Human), UniProt P09382); assay: Fluorescence anisotropy assay, galectin-1 affinity; type: binding; details: inhibition of galectin / fluorescein tagged saccharide probe interaction
Chain of galectin-1 (P09382 whole entry): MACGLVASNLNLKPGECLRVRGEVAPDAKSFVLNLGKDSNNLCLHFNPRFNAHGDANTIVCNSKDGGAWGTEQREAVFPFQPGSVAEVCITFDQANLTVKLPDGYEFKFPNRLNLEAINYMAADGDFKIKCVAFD
Method: The affinity of Example 1-22 for galectins were determined by a fluorescence anisotropy assay where the compound was used as an inhibitor of the interaction between galectin and a fluorescein tagged saccharide probe as described Sörme, P., Kahl-Knutsson, B., Huflejt, M., Nilsson, U. J., and Leffler H. (2004) Fluorescence polarization as an analytical tool to evaluate galectin-ligand interactions. Anal. Biochem. 334: 36-47, (Sörme et al., 2004) and Monovalent interactions of Galectin-1 By Salomonsson, Emma; Larumbe, Amaia; Tejler, Johan; Tullberg, Erik; Rydberg, Hanna; Sundin, Anders; Khabut, Areej; Frejd, Torbjorn; Lobsanov, Yuri D.; Rini, James M.; et al, From Biochemistry (2010), 49(44), 9518-9532, (Salomonsson et al., 2010). […] 100 nM albumin was included as a carrier to prevent protein loss at such low concentration of galectin.

Chain of galectin-3 (P17931 whole entry): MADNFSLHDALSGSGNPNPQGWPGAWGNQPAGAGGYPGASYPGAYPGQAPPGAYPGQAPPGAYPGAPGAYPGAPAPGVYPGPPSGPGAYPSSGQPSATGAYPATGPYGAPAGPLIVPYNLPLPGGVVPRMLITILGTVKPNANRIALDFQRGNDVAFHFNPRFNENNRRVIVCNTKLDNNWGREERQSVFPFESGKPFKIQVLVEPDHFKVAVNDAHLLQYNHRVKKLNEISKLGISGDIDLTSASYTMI

Kd (galectin-3)	SMILES	other results
0.022 µM	OC[C@H]1O[C@H](Sc2cncc(Cl)c2)[C@H](O)[C@@H](n2cc(-c3cc(F)c(Cl)c(F)c3)nn2)[C@H]1O [Example 9, 5-Chloro-3-pyridyl 3-deoxy-3-[4-(4-chloro-3,5-difluorophenyl)-1H-1,2,3-triazol-1-yl]-1-thio-α-D-galactopyranoside]	–
0.18 µM	N#Cc1c(F)cc(-c2cn([C@@H]3[C@@H](O)[C@@H](Sc4cncc(Cl)c4)O[C@H](CO)[C@@H]3O)nn2)cc1F [Example 14, 5-Chloro-3-pyridyl 3-deoxy-3-[4-(4-cyano-3,5-difluorophenyl)-1H-1,2,3-triazol-1-yl]-1-thio-α-D-galactopyranoside]	–
0.018 µM	Cc1c(F)cc(-c2cn([C@@H]3[C@@H](O)[C@@H](Sc4cncc(Cl)c4)O[C@H](CO)[C@@H]3O)nn2)cc1F [Example 16, 5-Chloro-3-pyridyl 3-deoxy-3-[4-(3,5-difluoro-4-methylphenyl)-1H-1,2,3-triazol-1-yl]-1-thio-α-D-galactopyranoside]	–
0.028 µM	OC[C@H]1O[C@H](Sc2cncc(Cl)c2)[C@H](O)[C@@H](n2cc(-c3cc(F)c(Br)c(F)c3)nn2)[C@H]1O [Example 17, 5-Chloro-3-pyridyl 3-deoxy-3-[4-(4-bromo-3,5-difluorophenyl)-1H-1,2,3-triazol-1-yl]-1-thio-α-D-galactopyranoside]	–
0.027 µM	OC[C@H]1O[C@H](Sc2cncc(Cl)c2)[C@H](O)[C@@H](n2cc(-c3cc(F)c(Cl)c(Cl)c3)nn2)[C@H]1O [Example 18, 5-Chloro-3-pyridyl 3-deoxy-3-[4-(3,4-dichloro-5-fluorophenyl)-1H-1,2,3-triazol-1-yl]-1-thio-α-D-galactopyranoside]	–
0.034 µM	OC[C@H]1O[C@H](Sc2cncc(Cl)c2)[C@H](O)[C@@H](n2cc(-c3ccc(Cl)c(F)c3)nn2)[C@H]1O [Example 19, 5-Chloro-3-pyridyl 3-deoxy-3-[4-(4-chloro-3-fluorophenyl)-1H-1,2,3-triazol-1-yl]-1-thio-α-D-galactopyranoside]	–
0.75 µM	OC[C@H]1O[C@H](Sc2ccc(Cl)c(Cl)c2)[C@H](O)[C@@H](n2cc(-c3cncc(F)c3)nn2)[C@H]1O [Example 20, 3,4-Dichlorophenyl 3-deoxy-3-[4-(5-fluoro-3-pyridyl)-1H-1,2,3-triazol-1-yl]-1-thio-α-D-galactopyranoside]	–
0.031 µM	OC[C@H]1O[C@H](Sc2cncc(Cl)c2)[C@H](O)[C@@H](n2cc(-c3ccc(Cl)c(Cl)c3)nn2)[C@H]1O [Example 21, 5-Chloro-3-pyridyl 3-deoxy-3-[4-(3,4-dichlorophenyl)-1H-1,2,3-triazol-1-yl]-1-thio-α-D-galactopyranoside]	–
0.694 µM	OC[C@H]1O[C@H](Sc2ccc(Cl)c(Cl)c2)[C@H](O)[C@@H](n2cc(-c3cncc(Cl)c3)nn2)[C@H]1O [Example 22, 3,4-Dichlorophenyl 3-deoxy-3-[4-(5-chloro-3-pyridyl)-1H-1,2,3-triazol-1-yl]-1-thio-α-D-galactopyranoside]	–

The remaining lines, values behind:

SMILES	Kd (galectin-3)	other results
O=C[C@H](O)[C@@H](O)[C@@H](O)[C@H](O)CO [D-galactose]	–	affinity, times lower than lactose (galectins; relative to lactose, all galectins): 50-100 times
N#Cc1cnc(S[C@H]2O[C@H](CO)[C@H](O)[C@H](n3cc(-c4cc(F)c(F)c(F)c4)nn3)[C@H]2O)cc1Br [Example 1, 4-Bromo-5-cyano-2-pyridyl 3-deoxy-3-[4-(3,4,5-trifluorophenyl)-1H-1,2,3-triazol-1-yl]-1-thio-α-D-galactopyranoside]	0.027 µM	Kd (galectin-1): 2.6 µM
N#Cc1cnc(S[C@H]2O[C@H](CO)[C@H](O)[C@H](n3cc(-c4cc(F)c(F)c(F)c4)nn3)[C@H]2O)cc1Cl [Example 2, 4-Chloro-5-cyano-2-pyridyl 3-deoxy-3-[4-(3,4,5-trifluorophenyl)-1H-1,2,3-triazol-1-yl]-1-thio-α-D-galactopyranoside]	0.057 µM	–
OC[C@H]1O[C@H](Sc2ccnc(Cl)c2)[C@H](O)[C@@H](n2cc(-c3cc(F)c(F)c(F)c3)nn2)[C@H]1O [Example 3, 2-Chloro-4-pyridyl 3-deoxy-3-[4-(3,4,5-trifluorophenyl)-1H-1,2,3-triazol-1-yl]-1-thio-α-D-galactopyranoside]	0.086 µM	–
N#Cc1ncc(Cl)cc1S[C@H]1O[C@H](CO)[C@H](O)[C@H](n2cc(-c3cc(F)c(F)c(F)c3)nn2)[C@H]1O [Example 4, 5-Chloro-2-cyano-3-pyridyl 3-deoxy-3-[4-(3,4,5-trifluorophenyl)-1H-1,2,3-triazol-1-yl]-1-thio-α-D-galactopyranoside]	0.029 µM	–
N#Cc1ncc(S[C@H]2O[C@H](CO)[C@H](O)[C@H](n3cc(-c4cc(F)c(F)c(F)c4)nn3)[C@H]2O)cc1Br [Example 5, 5-Bromo-6-cyano-3-pyridyl 3-deoxy-3-[4-(3,4,5-trifluorophenyl)-1H-1,2,3-triazol-1-yl]-1-thio-α-D-galactopyranoside]	0.022 µM	–
N#Cc1ncc(Br)cc1S[C@H]1O[C@H](CO)[C@H](O)[C@H](n2cc(-c3cc(F)c(F)c(F)c3)nn2)[C@H]1O [Example 6, 5-Bromo-2-cyano-3-pyridyl 3-deoxy-3-[4-(3,4,5-trifluorophenyl)-1H-1,2,3-triazol-1-yl]-1-thio-α-D-galactopyranoside]	0.022 µM	–
OC[C@H]1O[C@H](Sc2cc(Cl)ccn2)[C@H](O)[C@@H](n2cc(-c3cc(F)c(F)c(F)c3)nn2)[C@H]1O [Example 7, 4-Chloro-2-pyridyl 3-deoxy-3-[4-(3,4,5-trifluorophenyl)-1H-1,2,3-triazol-1-yl]-1-thio-α-D-galactopyranoside]	0.12 µM	Kd (galectin-1): 6.9 µM
N#Cc1ncc(S[C@H]2O[C@H](CO)[C@H](O)[C@H](n3cc(-c4cc(F)c(Cl)c(F)c4)nn3)[C@H]2O)cc1Cl [Example 10, 5-Chloro-6-cyano-3-pyridyl 3-deoxy-3-[4-(4-chloro-3,5-difluorophenyl)-1H-1,2,3-triazol-1-yl]-1-thio-α-D-galactopyranoside]	0.018 µM	–
N#Cc1ncc(Br)cc1S[C@H]1O[C@H](CO)[C@H](O)[C@H](n2cc(-c3cc(F)c(Cl)c(F)c3)nn2)[C@H]1O [Example 11, 5-Bromo-2-cyano-3-pyridyl 3-deoxy-3-[4-(4-chloro-3,5-difluorophenyl)-1H-1,2,3-triazol-1-yl]-1-thio-α-D-galactopyranoside]	0.011 µM	–
N#Cc1ncc(S[C@H]2O[C@H](CO)[C@H](O)[C@H](n3cc(-c4cc(F)c(Cl)c(F)c4)nn3)[C@H]2O)cc1Br [Example 12, 5-Bromo-6-cyano-3-pyridyl 3-deoxy-3-[4-(4-chloro-3,5-difluorophenyl)-1H-1,2,3-triazol-1-yl]-1-thio-α-D-galactopyranoside]	0.016 µM	Kd (galectin-1): 7 µM
N#Cc1ncc(Cl)cc1S[C@H]1O[C@H](CO)[C@H](O)[C@H](n2cc(-c3cc(F)c(Cl)c(F)c3)nn2)[C@H]1O [Example 13, 5-Chloro-2-cyano-3-pyridyl 3-deoxy-3-[4-(4-chloro-3,5-difluorophenyl)-1H-1,2,3-triazol-1-yl]-1-thio-α-D-galactopyranoside]	0.011 µM	–
OC[C@H]1O[C@H](Sc2cncc(Cl)c2)[C@H](O)[C@@H](n2cc(-c3cc(F)c(C(F)(F)F)c(F)c3)nn2)[C@H]1O [Example 15, 5-Chloro-3-pyridyl 3-deoxy-3-[4-(3,5-difluoro-4-trifluoromethyl-phenyl)-1H-1,2,3-triazol-1-yl]-1-thio-α-D-galactopyranoside]	0.097 µM	–
OC[C@H]1O[C@@H](O[C@H]2[C@H](O)[C@@H](O)C(O)O[C@@H]2CO)[C@H](O)[C@@H](O)[C@H]1O (some centres unmarked) [lactose]	–	Kd (galectins; reviewed by Leffler 2001, Leffler et al. 2004, read-out: Kd, all galectins): 500 to 1000 µM
